# Results: BindingDB's records for patent US9828374 (Hoffmann-La Roche, 2017)
# Target: Trace amine-associated receptor 1 (Mus musculus, UniProt Q923Y8)
# Assay: Radioligand Binding Assay
# Protocol: Nonspecific binding was defined as the amount of [H]-(S)-4-[(ethyl-phenyl-amino)-methyl]-4,5-dihydro-oxazol-2-ylamine bound in the presence of 10 μM unlabeled ligand. All compounds were tested at a broad range of concentrations ([…]) in duplicates.
# Trace amine-associated receptor 1, sequence (Q923Y8 whole entry): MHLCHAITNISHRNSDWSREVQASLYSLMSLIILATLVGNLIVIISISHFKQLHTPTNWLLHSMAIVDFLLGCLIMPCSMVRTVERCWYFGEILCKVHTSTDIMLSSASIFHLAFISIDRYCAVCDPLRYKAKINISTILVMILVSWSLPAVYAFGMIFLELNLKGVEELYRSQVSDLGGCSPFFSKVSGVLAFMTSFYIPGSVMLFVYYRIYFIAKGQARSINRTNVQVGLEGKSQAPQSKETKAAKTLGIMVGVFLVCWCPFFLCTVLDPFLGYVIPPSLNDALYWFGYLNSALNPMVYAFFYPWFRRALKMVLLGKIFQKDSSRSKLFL
row,SMILES,Ki
1,"Fc1c(Nc2cc(Cl)nc(C(F)(F)F)n2)ccc2c1CCN1CCNC[C@@H]21 [US9828374, Example 34]",0.0795 µM
2,"O=C(Nc1ccc2c(c1)CCN1CCNC[C@@H]21)c1cnc(C(F)(F)F)nc1 [US9828374, Example 4]",0.189 µM
3,"Brc1ccc2c(c1)CCN1CCNC[C@@H]21 [US9828374, Example 2]",0.18 µM
4,"Cc1cc(Nc2ccc3c(c2)CCN2CCNC[C@@H]32)nc(OCC(F)(F)F)n1 [US9828374, Example 26]",0.041 µM
